Experimental data from patent publication US10118935B2, “Melampomagnolide B dimers” (priority 2014, dated 2018).

Tests used:
HCT-116 [1] = tested on: HCT-116
SW-620 [2] = tested on: SW-620
SNB-19 = conditions: for GI50 / TGI: SNB-19
SK-OV-3 [3] = tested on: SK-OV-3
786-0 [4] = tested on: 786-0
ACHN [5] = tested on: ACHN
LOX IMVI = test: NCI 60 cell line five dose, Melanoma
SF-539 = test: NCI 60 cell line five dose, CNS Cancer
HCT-116 [6] = test: NCI 60 cell line five dose, Colon Cancer
SW-620 [7] = test: NCI 60 cell line five dose, Colon Cancer
786-0 [8] = test: NCI 60 cell line five dose, Renal Cancer
ACHN [9] = test: NCI 60 cell line five dose, Renal Cancer
CAKI-1 = test: NCI 60 cell line five dose, Renal Cancer
MDA-MB-231/ATCC = test: NCI 60 cell line five dose, Breast Cancer
SK-OV-3 [10] = test: NCI 60 cell line five dose, Ovarian Cancer
DU-145 = test: NCI 60 cell line five dose, Prostate Cancer
A549/ATCC = test: NCI 60 cell line five dose, Non-Small Cell Lung Cancer

Compound `C=C1C(=O)O[C@H]2[C@H]1CC/C(COC(=O)CCC(=O)NCCCCCCCCCNC(=O)CCC(=O)OC/C1=C/CC[C@@]3(C)O[C@H]3[C@H]3OC(=O)C(=C)[C@@H]3CC1)=C\CC[C@@]1(C)O[C@@H]21` [JVM 2-92, bis(((1aR,7aS,10aS,10bS,E)-1a-Methyl-8-methylene-9-oxo-1a,2,3,6,7,7a,8,9,10a,10b-decahydrooxireno[2′,3′:9,10]cyclodeca[1,2-b]furan-5-yl)methyl)4,4′-(nonane-1,9-diylbis(azanediyl))bis (4-oxobutanoate)] has a CC50 (CCRF-CEM) greater than 100 µM, a CC50 (MOLT-4) greater than 100 µM and a CC50 (NCI-H460) of 25.7 µM. It also gave a CC50 (COLO 205) of 8.15 µM, a CC50 (HCC-2998) of 9.82 µM and a CC50 (HCT-116 [1]) of 4.97 µM. The CC50 (HCT-15) was 46 µM, the CC50 (KM12) was 50.2 µM and the CC50 (SW-620 [2]) was 6.14 µM. It also gave a CC50 (SF-295) of 52 µM, a CC50 (SNB-19) greater than 100 µM and a GI50 (SNB-19) of 3.38 µM. For the same compound, the TGI (SNB-19) was 16.3 µM, the CC50 (U251) was 44.7 µM and the CC50 (MALME-3M) was 8.93 µM. It also gave a CC50 (SK-MEL-5) of 9.37 µM, a CC50 (UACC-257) of 32 µM and a CC50 (UACC-62) of 8.44 µM. It also gave a CC50 (OVCAR-4) of 8.06 µM, a CC50 (NCI/ADR-RES) greater than 100 µM and a CC50 (SK-OV-3 [3]) of 49.1 µM. The CC50 (786-0 [4]) was 6.04 µM, the CC50 (A498) was 31.3 µM and the CC50 (ACHN [5]) was 17.2 µM. For the same compound, the CC50 (RXF 393) was 6.21 µM, the CC50 (TK-10) was 6.02 µM and the CC50 (UO-31) was 45.6 µM. For the same compound, the CC50 (HS 578T) was greater than 100 µM, the CC50 (MDA-MB-468) was 7.04 µM and the GI50 (LOX IMVI) was 0.37 µM. The TGI (LOX IMVI) was 1.36 µM, the GI50 (SF-539) was 1.85 µM and the TGI (SF-539) was 4.29 µM. The GI50 (HCT-116 [6]) was 0.86 µM, the TGI (HCT-116 [6]) was 2.18 µM and the GI50 (SW-620 [7]) was 0.54 µM. The TGI (SW-620 [7]) was 2.07 µM, the GI50 (786-0 [8]) was 1.49 µM and the TGI (786-0 [8]) was 3.00 µM. It also gave a GI50 (ACHN [9]) of 2.1 µM, a TGI (ACHN [9]) of 5.16 µM and a GI50 (CAKI-1) of 10.5 µM. It also gave a TGI (CAKI-1) of 22.8 µM, a GI50 (MDA-MB-231/ATCC) of 1.58 µM and a TGI (MDA-MB-231/ATCC) of 4.05 µM. The GI50 (SK-OV-3 [10]) was 5.8 µM, the TGI (SK-OV-3 [10]) was 19.2 µM and the GI50 (DU-145) was 1.75 µM. The TGI (DU-145) was 3.18 µM, the GI50 (A549/ATCC) was 13.8 µM and the TGI (A549/ATCC) was 33.7 µM.

In the case of `C=C1C(=O)O[C@H]2[C@H]1CC/C(COC(=O)CCC(=O)NCCCCCCCCNC(=O)CCC(=O)OC/C1=C/CC[C@@]3(C)O[C@H]3[C@H]3OC(=O)C(=C)[C@@H]3CC1)=C\CC[C@@]1(C)O[C@@H]21` [JVM 2-87, bis(((1aR,7aS,10aS,10bS,E)-1a-Methyl-8-methylene-9-oxo-1a,2,3,6,7,7a,8,9,10a,1b-decahydrooxireno[2′,3′:9,10]cyclodeca[1,2-b]furan-5-yl)methyl)4,4′-(octane-1,8-diylbis(azanediyl))bis(4-oxobutanoate)], the CC50 (CCRF-CEM) is reported as greater than 100 µM, the CC50 (MOLT-4) is reported as greater than 100 µM and the CC50 (NCI-H460) is reported as 66.2 µM. For the same compound, the CC50 (COLO 205) was 7.28 µM, the CC50 (HCC-2998) was 63.6 µM and the CC50 (HCT-116 [1]) was 5.41 µM. For the same compound, the CC50 (HCT-15) was 43.2 µM, the CC50 (KM12) was 53.4 µM and the CC50 (SW-620 [2]) was 7.2 µM. The CC50 (SF-295) was 56.8 µM, the CC50 (SNB-19) was greater than 100 µM and the GI50 (SNB-19) was 4.15 µM. For the same compound, the TGI (SNB-19) was 19.9 µM, the CC50 (U251) was 43 µM and the CC50 (MALME-3M) was 8 µM. It also gave a CC50 (SK-MEL-5) of 38.4 µM, a CC50 (UACC-257) of 16 µM and a CC50 (UACC-62) of 8.94 µM. The CC50 (OVCAR-4) was 9.38 µM, the CC50 (NCI/ADR-RES) was greater than 100 µM and the CC50 (SK-OV-3 [3]) was 47.9 µM. For the same compound, the CC50 (786-0 [4]) was 6.67 µM, the CC50 (A498) was 49.6 µM and the CC50 (ACHN [5]) was 34.7 µM. For the same compound, the CC50 (RXF 393) was 7.27 µM, the CC50 (TK-10) was 7.46 µM and the CC50 (UO-31) was 54 µM. For the same compound, the CC50 (HS 578T) was greater than 100 µM, the CC50 (MDA-MB-468) was 21.3 µM and the GI50 (LOX IMVI) was 1.37 µM. The TGI (LOX IMVI) was 2.76 µM, the GI50 (SF-539) was 2.43 µM and the TGI (SF-539) was 5.76 µM. The GI50 (HCT-116 [6]) was 1.54 µM, the TGI (HCT-116 [6]) was 2.88 µM and the GI50 (SW-620 [7]) was 1.22 µM. It also gave a TGI (SW-620 [7]) of 2.97 µM, a GI50 (786-0 [8]) of 1.62 µM and a TGI (786-0 [8]) of 3.29 µM. It also gave a GI50 (ACHN [9]) of 3.13 µM, a TGI (ACHN [9]) of 10.9 µM and a GI50 (CAKI-1) of 12.7 µM. It also gave a TGI (CAKI-1) of 32.0 µM, a GI50 (MDA-MB-231/ATCC) of 1.97 µM and a TGI (MDA-MB-231/ATCC) of 4.41 µM. It also gave a GI50 (SK-OV-3 [10]) of 6.45 µM, a TGI (SK-OV-3 [10]) of 19.7 µM and a GI50 (DU-145) of 1.92 µM. The TGI (DU-145) was 3.61 µM, the GI50 (A549/ATCC) was 18.5 µM and the TGI (A549/ATCC) was 40.7 µM.
